From patent US10143697B2, “Pharmaceutic composition comprising of HDAC inhibitor and a steroid and the use thereof” (VALCURIA AB, priority 2011, dated 2018)
Where two headings read alike, the source gives them in different places.

Legend:
[1] = test system: WSU-NHL cells; assay: pretreatment with Trichostatin A or Belinostat, Prednisolone and CHOP, viability by trypan blue exclusion; conditions: for sensitization to CHOP-treatment: pretreatment with the HDAC inhibitor alone before CHOP
Description: Viability was assessed by trypan blue exclusion at indicated time points (n=3). Significant differences were evaluated using Student's unpaired t-test. All tests were two-sided. Effects were considered statistically significant at *P<0.05, **P<0.01, ***P<0.001.

[2] = test system: WSU-NHL cells; assay: pretreatment with VPA and prednisolone before CHOP, viability by trypan blue exclusion; format: cell-based
Description: Pretreatment with VPA before CHOP could theoretically increase the response to CHOP therapy through induction of DNA damage. However, VPA treatment could result in symptoms such as somnolence in a patient. These symptoms could be counteracted by simultaneous treatment with prednisolone. […] All tests were two-sided.

[3] = continuous VPA treatment in patients with epilepsy; cited from earlier work
[4] = test system: ULA cells; assay: cell viability by trypan blue exclusion after 72 hours, VPA alone or in combination with CHOP; format: cell-based; conditions: for viability at 100 µM: 0.1 mM VPA; for viability at 2000 µM: 2 mM VPA; for viability at 10000 µM: 10 mM VPA
Description: (§1) The DLBCL cell lines WSU-NHL, Karpas-422, ULA, SU-DHL-5 and SU-DHL-8 cells were treated for 72 hours with three different concentrations (0.1 mM, 2 mM and 10 mM respectively) of valproic acid (VPA) alone, or in combination with CHOP. The CHOP regimen used in all examples consists of 10 μM cyclophosphamide monohydrate, 20 nM doxorubicin hydrochloride, 2 nM vincristine sulfate and 20 μg/ml prednisolone. (Ageberg, Rydström, Lindén, Linderoth, Jerkeman and Drott; Exp Cell Research; May 1; 317(8):1179-91).
(§2) The cell viability was assessed after 72 hours by trypan blue exclusion and normalised to untreated control cells at day 0 (seeding). Data are presented as mean±SEM, n=3.

[5] = test system: SU-DHL-8 cells; assay: as above; format: cell-based; conditions: Homo sapiens, SU-DHL-8, 72 h; for viability at 100 µM: 0.1 mM VPA; for viability at 2000 µM: 2 mM VPA; for viability at 10000 µM: 10 mM VPA
Description: as §1, §2

[6] = test system: WSU-NHL cells; assay: as above; format: cell-based; conditions: Homo sapiens; for viability at 100 µM: 0.1 mM VPA; for viability at 2000 µM: 2 mM VPA; for viability at 10000 µM: 10 mM VPA
Description: as §1, §2

[7] = test system: SU-DHL-5 cells; assay: as above; format: cell-based; conditions: Homo sapiens, SU-DHL-5, 72 h; for viability at 100 µM: 0.1 mM VPA; for viability at 2000 µM: 2 mM VPA; for viability at 10000 µM: 10 mM VPA
Description: as §1, §2

[8] = test system: Karpas-422 cells; assay: as above; format: cell-based; conditions: Homo sapiens, KARPAS-422, 72 h; for viability at 100 µM: 0.1 mM VPA; for viability at 2000 µM: 2 mM VPA; for viability at 10000 µM: 10 mM VPA
Description: as §1, §2

[9] = VPA serum concentration in patients; format: in vivo, human; conditions: 5 day VPA treatment for compassionate use as noted by the inventor
Description: (§3) The DLBCL cell lines SU-DHL-8 (Table 2A) and WSU-NHL (Table 2B) were treated for 72 hours with 0.5 mM or 1.5 mM VPA alone, or in combination with CHOP. The concentration of 0.5 mM VPA was chosen because it is a normal serum concentration during continuous VPA treatment in patients with epilepsy. The concentration of 1.5 mM VPA was chosen because it is the maximal tolerated serum concentration during 5 day VPA treatment for compassionate use as noted by the inventor.

[10] = test system: SU-DHL-8; assay: cell viability time course by trypan blue exclusion, 0.5 mM or 1.5 mM VPA alone or with CHOP; format: cell-based; conditions: Homo sapiens, read-out: Viability (% of control cells day 1); for viability at 500 µM: SU-DHL-8, 0.5 mM VPA; for viability at 1500 µM: SU-DHL-8, 1.5 mM VPA
Description: as §3
(§4) The cell viability was assessed after 0 (Day 1), 24 (Day 2), 48 (Day 3) and 72 (Day 4) hours respectively, by trypan blue exclusion and normalised to untreated control cells. Data are presented as mean, n=3.
(§5) Treatment effects on viability were tested against the effects of CHOP treatment alone. […] All tests were two-sided. Effects were considered statistically significant at P<0.05 (*) and P<0.01 (**).
(§6) Viability (% of control cells day 1) are shown in Table 2A (SU-DHL-8) and Table 2B (WSU-NHL, n=3) respectively.

[11] = test system: WSU-NHL; assay: as above; format: cell-based; conditions: Homo sapiens, read-out: Viability (% of control cells day 1); for viability at 500 µM: 0.5 mM VPA; for viability at 1500 µM: 1.5 mM VPA
Description: as §3, §4, §5, §6

[12] = test system: histone H3; assay: acetylation of histone H3 by western blot analysis in DLBCL cell line model; format: cell-based; conditions: valproic acid at pharmacological concentrations
[13] = test system: SU-DHL-8 cells; assay: Rituximab antibody-dependent cellular cytotoxicity (ADCC) with NK cells, dead target cells PKH26/7-AAD double positive; format: cell-based
Description: (§7) To estimate the impact of VPA on the antibody-dependent-cellular cytotoxicity (ADCC) induced by the CD20 antibody Rituximab. […]
(§8) NK cells were added as an effector to target cell ratio of 10:1, thereafter the cells were incubated for an additional 20 hours. Dead target cells were identified as double positive for PKH26 and 7-AAD and used as readout of the assay.

[14] = test system: WSU-NHL cells; assay: as above; format: cell-based
Description: as §7, §8

[15] = 1.5 mM VPA for 24 hours before rituximab
[16] = Rituximab 0 μg/ml, +NK Cells + 1.5 mM VPA
[17] = Rituximab 0.1 μg/ml, +NK Cells + 1.5 mM VPA
[18] = Rituximab 0.1 μg/ml, +NK Cells + 1.5 mM VPA + CHOP
[19] = Rituximab 0.1 μg/ml, +NK cells + CHOP
[20] = Rituximab 1 μg/ml, +NK Cells + 1.5 mM VPA
[21] = Rituximab 1 μg/ml, +NK Cells + 1.5 mM VPA + CHOP
[22] = Rituximab 1 μg/ml, +NK cells + CHOP
[23] = Rituximab 10 μg/ml, +NK Cells + 1.5 mM VPA
[24] = Rituximab 10 μg/ml, +NK Cells + 1.5 mM VPA + CHOP
[25] = Rituximab 10 μg/ml, +NK cells + CHOP

## O=C(/C=C/c1cccc(S(=O)(=O)Nc2ccccc2)c1)NO [Belinostat]
[1]
  sensitization to CHOP-treatment: sensitized DLBCL cell lines to CHOP-induced cell death

## C[C@]12C=CC(=O)C=C1CC[C@@H]1[C@@H]2[C@@H](O)C[C@@]2(C)[C@H]1CC[C@]2(O)C(=O)CO [Prednisolone]
[1]; prednisolone (20 μg/ml) added to HDAC inhibitor pretreatment before CHOP
  CHOP-induced cell death: significantly increases CHOP-induced cell death
[2]; prednisolone (20 μg/ml) added to VPA pretreatment before CHOP, compared to pretreatment with VPA alone
  CHOP-induced cell death: further increases significantly CHOP-induced cell death

## CC(/C=C/C(=O)NO)=C\[C@@H](C)C(=O)c1ccc(N(C)C)cc1 [TSA, Trichostatin A]
[1]
  sensitization to CHOP-treatment: sensitizes lymphoma cell lines to CHOP-treatment

## CCCC(CCC)C(=O)O [VPA, valproic acid]
[3]
  normal serum concentration: 0.5 mM
[4]; +CHOP
  viability at 100 µM: 73%
  viability at 2000 µM: 52%
  viability at 10000 µM: 42%
[4]; −CHOP
  viability at 100 µM: 105%
  viability at 2000 µM: 52%
  viability at 10000 µM: 50%
[5]; +CHOP
  viability at 100 µM: 55%
  viability at 2000 µM: 0%
  viability at 10000 µM: 0%
[5]; −CHOP
  viability at 100 µM: 105%
  viability at 2000 µM: 67%
  viability at 10000 µM: 0%
[6]; +CHOP
  viability at 100 µM: 63%
  viability at 2000 µM: 6%
  viability at 10000 µM: 0%
[6]; −CHOP
  viability at 100 µM: 99%
  viability at 2000 µM: 29%
  viability at 10000 µM: 1%
[7]; +CHOP
  viability at 100 µM: 26%
  viability at 2000 µM: 1%
  viability at 10000 µM: 0%
[7]; −CHOP
  viability at 100 µM: 124%
  viability at 2000 µM: 53%
  viability at 10000 µM: 0%
[8]; +CHOP
  viability at 100 µM: 80%
  viability at 2000 µM: 67%
  viability at 10000 µM: 21%
[8]; −CHOP
  viability at 100 µM: 100%
  viability at 2000 µM: 102%
  viability at 10000 µM: 21%
[9]
  maximal tolerated serum concentration: 1.5 mM
[10]; Day 1 (0 hours)
  viability at 500 µM: 100%
  viability at 1500 µM: 100%
[10]; Day 2 (24 hours)
  viability at 500 µM: 102%
  viability at 1500 µM: 97%
[10]; Day 3 (48 hours)
  viability at 500 µM: 101%
  viability at 1500 µM: 64%
[10]; Day 4 (72 hours)
  viability at 500 µM: 94%
  viability at 1500 µM: 59%
[11]; Day 1 (0 hours)
  viability at 500 µM: 100%
  viability at 1500 µM: 100%
[11]; Day 2 (24 hours)
  viability at 500 µM: 97%
  viability at 1500 µM: 95%
[11]; Day 3 (48 hours)
  viability at 500 µM: 99%
  viability at 1500 µM: 68%
[11]; Day 4 (72 hours)
  viability at 500 µM: 98%
  viability at 1500 µM: 36%
[12]
  acetylation of histone H3: increase in acetylation of histone H3
[2]; pretreatment with VPA alone before CHOP
  sensitization to CHOP-treatment: sensitizes lymphoma cell lines to CHOP-treatment
[13]; [15]
  effect on Rituximab induced ADCC: does not affect Rituximab induced ADCC
[13]; [16]
  percentage of dead cells, Mean: 34%
[14]; [15]
  effect on Rituximab induced ADCC: does not affect Rituximab induced ADCC
[14]; [16]
  percentage of dead cells, Mean: 27%

## Rituximab: the CD20 antibody Rituximab
[13]; [17]
  percentage of dead cells, Mean: 43%
[13]; [18]
  percentage of dead cells, Mean: 50%
[13]; Rituximab 0.1 μg/ml, +NK cells
  percentage of dead cells, Mean: 38%
[13]; [19]
  percentage of dead cells, Mean: 38%
[13]; [20]
  percentage of dead cells, Mean: 49%
[13]; [21]
  percentage of dead cells, Mean: 63%
[13]; Rituximab 1 μg/ml, +NK cells
  percentage of dead cells, Mean: 50%
[13]; [22]
  percentage of dead cells, Mean: 49%
[13]; [23]
  percentage of dead cells, Mean: 58%
[13]; [24]
  percentage of dead cells, Mean: 66%
[13]; Rituximab 10 μg/ml, +NK cells
  percentage of dead cells, Mean: 60%
[13]; [25]
  percentage of dead cells, Mean: 59%
[14]; [17]
  percentage of dead cells, Mean: 40%
[14]; [18]
  percentage of dead cells, Mean: 60%
[14]; Rituximab 0.1 μg/ml, +NK cells
  percentage of dead cells, Mean: 35%
[14]; [19]
  percentage of dead cells, Mean: 45%
[14]; [20]
  percentage of dead cells, Mean: 50%
[14]; [21]
  percentage of dead cells, Mean: 60%
[14]; Rituximab 1 μg/ml, +NK cells
  percentage of dead cells, Mean: 45%
[14]; [22]
  percentage of dead cells, Mean: 54%
[14]; [23]
  percentage of dead cells, Mean: 56%
[14]; [24]
  percentage of dead cells, Mean: 66%
[14]; Rituximab 10 μg/ml, +NK cells
  percentage of dead cells, Mean: 54%
[14]; [25]
  percentage of dead cells, Mean: 61%
